Assay results: patent publication US20250171462A1 (NICO Therapeutics, Inc., priority 2022, published 2025)
Like-named read-outs stand apart in the source and are kept apart here.

Biological target: T1, full-length SARM1 (FL-SARM1) (Homo sapiens, UniProt Q6SZW1)
T1 sequence (Q6SZW1 28-724): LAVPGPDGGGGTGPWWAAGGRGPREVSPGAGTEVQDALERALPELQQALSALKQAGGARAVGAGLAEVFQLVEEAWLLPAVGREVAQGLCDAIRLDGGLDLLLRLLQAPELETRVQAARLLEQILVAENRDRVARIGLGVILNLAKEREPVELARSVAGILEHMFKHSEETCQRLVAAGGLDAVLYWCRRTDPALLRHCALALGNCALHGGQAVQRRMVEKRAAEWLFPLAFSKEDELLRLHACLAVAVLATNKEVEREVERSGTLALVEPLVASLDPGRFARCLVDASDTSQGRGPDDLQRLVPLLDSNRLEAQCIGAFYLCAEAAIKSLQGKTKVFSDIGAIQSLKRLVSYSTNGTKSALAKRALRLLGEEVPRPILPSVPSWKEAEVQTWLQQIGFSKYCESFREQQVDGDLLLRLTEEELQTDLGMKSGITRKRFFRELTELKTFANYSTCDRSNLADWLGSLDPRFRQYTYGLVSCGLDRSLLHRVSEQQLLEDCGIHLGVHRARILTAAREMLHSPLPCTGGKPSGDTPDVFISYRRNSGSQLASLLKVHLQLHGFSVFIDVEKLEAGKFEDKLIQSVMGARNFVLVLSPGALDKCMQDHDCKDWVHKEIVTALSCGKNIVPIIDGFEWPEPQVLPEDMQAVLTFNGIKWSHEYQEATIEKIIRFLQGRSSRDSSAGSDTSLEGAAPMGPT
Test: FL-SARM1 cellular lysate assay (NAD/NADH-Glo detection of remaining NAD+, NMN-activated)

[1] = Activity (IC50 class), 11 point curve
[2] = Activity (μM) (IC50), 11 point curve
[3] = read-out: Activity (IC50 class), 11 point curve

| SMILES | IC50 [1] [µM] | IC50 [2] [µM] | IC50 [3] [µM] |
| --- | --- | --- | --- |
| CCOC(C)[C@@]12CC(C[C@@H](C)C1)N2C(=O)Nc1ccc(C)c(-c2ncc(F)cn2)c1 (single isomer, unassigned) [Example 189, cis-1-(1-ethoxyethyl)-N-(3-(5-fluoropyrimidin-2-yl)-4-methylphenyl)-3-methyl-6-azabicyclo[3.1.1]heptane-6-carboxamide] | 1 to 10 | 1.9 |  |
| COC(C)[C@@]12CC(C[C@@H](C)C1)N2C(=O)Nc1ccc(C)c(-c2ncc(F)cn2)c1 (single isomer, unassigned) [Example 191, cis-N-(3-(5-fluoropyrimidin-2-yl)-4-methylphenyl)-1-(1-methoxyethyl)-3-methyl-6-azabicyclo[3.1.1]heptane-6-carboxamide] |  | 0.0009 | 0.0001 to 1 |
| COC(C)[C@@]12CC(C[C@@H](C)C1)N2C(=O)Nc1ccc(C)c(-c2ncc(F)cn2)c1 (single isomer, unassigned) [Example 192, cis-N-(3-(5-fluoropyrimidin-2-yl)-4-methylphenyl)-1-(−1-methoxyethyl)-3-methyl-6-azabicyclo[3.1.1]heptane-6-carboxamide] | 1 to 10 | 1 |  |
| Cc1ccc(NC(=O)N2C3CC(C)CC2(C(C)O)C3)cc1-c1ncc(F)cn1 (single isomer, unassigned) [Example 193, cis-N-(3-(5-fluoropyrimidin-2-yl)-4-methylphenyl)-1-(1-hydroxyethyl)-3-methyl-6-azabicyclo[3.1.1]heptane-6-carboxamide] |  | 0.1 | 0.0001 to 1 |
| Cc1ccc(NC(=O)N2C3CC(C)CC2(C(C)O)C3)cc1-c1ncc(F)cn1 (single isomer, unassigned) [Example 194, cis-N-(3-(5-fluoropyrimidin-2-yl)-4-methylphenyl)-1-(1-hydroxyethyl)-3-methyl-6-azabicyclo[3.1.1]heptane-6-carboxamide] |  | 0.01 | 0.0001 to 1 |
| Cc1ccc(NC(=O)N2C3CCC2[C@@H](C)C3)cc1-c1ncc(F)cn1 (single isomer, unassigned) [Example 195, cis-N-(3-(5-fluoropyrimidin-2-yl)-4-methylphenyl)-2-methyl-7-azabicyclo[2.2.1]heptane-7-carboxamide] |  | 0.3 | 0.0001 to 1 |
| Cc1ccc(NC(=O)N2C3CCC2[C@@H](C)C3)cc1-c1ncc(F)cn1 (single isomer, unassigned) [Example 196, cis-N-(3-(5-fluoropyrimidin-2-yl)-4-methylphenyl)-2-methyl-7-azabicyclo[2.2.1]heptane-7-carboxamide] |  | 0.8 | 0.0001 to 1 |
| Cc1ccc(NC(=O)N2C3CCC2[C@H](C)C3)cc1-c1ncc(F)cn1 (single isomer, unassigned) [Example 197, trans-N-[3-(5-fluoropyrimidin-2-yl)-4-methylphenyl]-2-methyl-7-azabicyclo[2.2.1]heptane-7-carboxamide] |  | 0.4 | 0.0001 to 1 |
| Cc1ccc(NC(=O)N2C3CCC2[C@H](C)C3)cc1-c1ncc(F)cn1 (single isomer, unassigned) [Example 198, trans-N-[3-(5-fluoropyrimidin-2-yl)-4-methylphenyl]-2-methyl-7-azabicyclo[2.2.1]heptane-7-carboxamide] |  | 0.3 | 0.0001 to 1 |
| COCC12CC(C)CC(C1)N2C(=O)Nc1cc(-c2ncccn2)c(C)cc1F (single isomer, unassigned) [Example 199, trans-N-(2-fluoro-4-methyl-5-pyrimidin-2-ylphenyl)-1-(methoxymethyl)-3-methyl-6-azabicyclo[3.1.1]heptane-6-carboxamide] | 1 to 10 | 4.3 |  |
| COCC12CC(C)CC(C1)N2C(=O)Nc1cc(-c2ncccn2)c(C)cc1F (single isomer, unassigned) [Example 200, trans-N-(2-fluoro-4-methyl-5-pyrimidin-2-ylphenyl)-1-(methoxymethyl)-3-methyl-6-azabicyclo[3.1.1]heptane-6-carboxamide] |  | 0.1 | 0.0001 to 1 |
| Cc1cc(F)c(NC(=O)N2CC3CC2c2ccccc23)cc1-c1cccnn1 (single isomer, unassigned) [Example 201, N-(2-fluoro-4-methyl-5-pyridazin-3-ylphenyl)-9-azatricyclo[6.2.1.02,7]undeca-2(7),3,5-triene-9-carboxamide] | 1 to 10 | 2 |  |
| Cc1cc(F)c(NC(=O)N2CC3CC2c2ccccc23)cc1-c1cccnn1 (single isomer, unassigned) [Example 202, N-(2-fluoro-4-methyl-5-pyridazin-3-ylphenyl)-9-azatricyclo[6.2.1.02,7]undeca-2(7),3,5-triene-9-carboxamide] |  | 6.7 | 1 to 10 |
| Cc1ccc(NC(=O)C2[C@@H]3CC[C@@]2(c2ccnn2C)C3)cc1-c1ncc(F)cn1 (single isomer, unassigned) [Example 203, N-[3-(5-fluoropyrimidin-2-yl)-4-methylphenyl]-1-(2-methylpyrazol-3-yl)bicyclo[2.1.1]hexane-5-carboxamide] | > 10 | > 50 |  |
| Cc1ccc(NC(=O)C2[C@@H]3CC[C@@]2(c2ccnn2C)C3)cc1-c1ncc(F)cn1 (single isomer, unassigned) [Example 204, N-[3-(5-fluoropyrimidin-2-yl)-4-methylphenyl]-1-(2-methylpyrazol-3-yl)bicyclo[2.1.1]hexane-5-carboxamide] |  | 0.5 | 0.0001 to 1 |
| Cc1ccc(NC(=O)[C@H]2CC[C@@H](C)CN2c2ncccn2)cc1-c1ncccn1 (single isomer, unassigned) [Example 205, cis-5-methyl-N-(4-methyl-3-(pyrimidin-2-yl)phenyl)-1-(pyrimidin-2-yl)piperidine-2-carboxamide] |  | 0.3 | 0.0001 to 1 |
| Cc1ccc(NC(=O)[C@H]2CC[C@@H](C)CN2c2ncccn2)cc1-c1ncccn1 (single isomer, unassigned) [Example 206, cis-5-methyl-N-(4-methyl-3-(pyrimidin-2-yl)phenyl)-1-(pyrimidin-2-yl)piperidine-2-carboxamide] |  | 0.7 | 0.0001 to 1 |
| Cc1ccc(NC(=O)C2COC(C)(C)CN2c2ncccn2)cc1-c1ncccn1 (single isomer, unassigned) [Example 207, 6,6-dimethyl-N-(4-methyl-3-(pyrimidin-2-yl)phenyl)-4-(pyrimidin-2-yl)morpholine-3-carboxamide] | > 10 | > 50 |  |
| Cc1ccc(NC(=O)C2COC(C)(C)CN2c2ncccn2)cc1-c1ncccn1 (single isomer, unassigned) [Example 208, 6,6-dimethyl-N-(4-methyl-3-(pyrimidin-2-yl)phenyl)-4-(pyrimidin-2-yl)morpholine-3-carboxamide] | 1 to 10 | 3.3 |  |
| COC(C)[C@@]12CC(C[C@@H](C)C1)N2C(=O)Nc1ccc(C(F)(F)F)c(-c2nccnn2)c1 (single isomer, unassigned) [Example 209, cis-N-(3-(1,2,4-triazin-3-yl)-4-(trifluoromethyl)phenyl)-1-(1-methoxyethyl)-3-methyl-6-azabicyclo[3.1.1]heptane-6-carboxamide] |  | 0.5 | 0.0001 to 1 |
| COC(C)[C@@]12CC(C[C@@H](C)C1)N2C(=O)Nc1ccc(C(F)(F)F)c(-c2nccnn2)c1 (single isomer, unassigned) [Example 210, cis-N-(3-(1,2,4-triazin-3-yl)-4-(trifluoromethyl)phenyl)-1-(1-methoxyethyl)-3-methyl-6-azabicyclo[3.1.1]heptane-6-carboxamide] | > 10 | > 50 |  |
| COC(C)[C@@]12CC(C[C@@H](C)C1)N2C(=O)Nc1ccc(C(F)(F)F)c(-c2nccnn2)c1 (single isomer, unassigned) [Example 211, cis-N-(3-(1,2,4-triazin-3-yl)-4-(trifluoromethyl)phenyl)-1-(1-methoxyethyl)-3-methyl-6-azabicyclo[3.1.1]heptane-6-carboxamide] |  | 0.004 | 0.0001 to 1 |
| COC(C)[C@@]12CC(C[C@@H](C)C1)N2C(=O)Nc1ccc(C(F)(F)F)c(-c2nccnn2)c1 (single isomer, unassigned) [Example 212, cis-N-(3-(1,2,4-triazin-3-yl)-4-(trifluoromethyl)phenyl)-1-(1-methoxyethyl)-3-methyl-6-azabicyclo[3.1.1]heptane-6-carboxamide] | 1 to 10 | 9.6 |  |
| Cc1cc(F)c(NC(=O)[C@@H]2CC2(F)F)cc1-c1ccccn1 (stereo in doubt) [Example 143, 2,2-difluoro-N-(2-fluoro-4-methyl-5-pyridin-2-ylphenyl)cyclopropane-1-carboxamide] | 1 to 10 | 1.8 |  |
| COC(=O)N1C[C@@H]2C[C@H]1CN2C(=O)Nc1ccc(C)c(-c2ccccn2)c1 [Example 1, (1S,4S)-Methyl 5-((4-methyl-3-(pyridin-2-yl)phenyl)carbamoyl)-2,5-diazabicyclo[2.2.1]heptane-2-carboxylate] | > 10 | 23 |  |
